From ChEMBL document CHEMBL1147010, “Aziridine-2,3-dicarboxylate inhibitors targeting the major cysteine protease of Trypanosoma brucei as lead trypanocidal agents” (Bioorg Med Chem Lett, 2006) come the findings set out here.

Active and inactive are the calls of the source. The calls are words filed in the database; no cut-off is given here. A value given as a limit tells only on which side of the number the result lay.

Experiment [1] has as its target Rhodesain (Trypanosoma brucei rhodesiense) (UniProt Q95PM0). Nature of the experiment: Inhibition of Trypanosoma brucei rhodesiense rhodesain at 200 uM.
For experiment [2], the system named is Trypanosoma brucei brucei. Nature of the experiment: Trypanocidal activity against Trypanosoma brucei brucei after 48 hrs. Format: functional, organism-based.
The subject of experiment [3] is J774. Briefly: Cytotoxicity against J774.1 cell line after 48 hrs. Type of experiment: functional, cell-based. Particulars: Mus musculus, J774, 48 h.
In experiment [4] the test system is J774. Nature of the experiment: Selectivity index, IC50 for J774.1/IC50 for Trypanosoma brucei brucei. Type of experiment: functional.
Experiment [5] concerns the target T1, Rhodesain (Trypanosoma brucei rhodesiense, UniProt Q95PM0). Briefly: Inhibition of Trypanosoma brucei rhodesiense rhodesain.
For experiment [6], the target named is T1, Rhodesain. Briefly: Inhibition of Trypanosoma brucei rhodesiense rhodesain in presence of 31.6 uM substrate Cbz-Phe-Arg-AMC.
Experiment [7] deals with Rhodesain (Trypanosoma brucei rhodesiense) (UniProt Q95PM0). Briefly: Inhibition of Trypanosoma brucei rhodesiense rhodesain at 140 uM.
Experiment [8] concerns J774. Nature of the experiment: Cytotoxicity against J774.1 cell line after 72 hrs. Type of experiment: functional, cell-based. Particulars: Mus musculus, J774, 72 h.

Rhodesain (Trypanosoma brucei rhodesiense), sequence (Q95PM0 1-450): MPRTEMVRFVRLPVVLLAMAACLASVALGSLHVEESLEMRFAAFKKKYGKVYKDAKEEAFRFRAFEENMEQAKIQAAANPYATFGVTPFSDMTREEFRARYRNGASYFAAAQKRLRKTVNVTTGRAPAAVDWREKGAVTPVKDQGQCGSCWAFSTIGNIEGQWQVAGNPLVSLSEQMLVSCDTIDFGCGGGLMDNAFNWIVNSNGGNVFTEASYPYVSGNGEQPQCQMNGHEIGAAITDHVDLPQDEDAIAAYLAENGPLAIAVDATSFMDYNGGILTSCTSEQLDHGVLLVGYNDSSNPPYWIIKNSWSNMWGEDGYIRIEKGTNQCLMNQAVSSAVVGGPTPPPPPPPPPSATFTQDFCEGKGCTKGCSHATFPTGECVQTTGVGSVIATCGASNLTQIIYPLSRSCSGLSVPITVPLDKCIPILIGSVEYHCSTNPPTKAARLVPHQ
T1 sequence (Q95PM0 whole entry): as the sequence (Q95PM0 1-450) above

Turning to `Cl.NCCCC(N)(C(=O)O)C(F)F.O` (stereo not drawn) [EFLORNITHINE HYDROCHLORIDE], the inhibition in experiment [1] was 30.7%. The same compound showed a minimum inhibitory concentration (MIC) in experiment [2] of over 1000 µM. In the experiment on J774 [3], the IC50 is over 1000 µM. The “Ratio IC50” value with J774 [4] is on record as over 44.
For the compound `Nc1nc(N)nc(Nc2ccc([As]3SCC(CO)S3)cc2)n1` (stereo not drawn) [MELARSOPROL], the inhibition in experiment [1] worked out at 94.3%. Also, the results for the IC50 (in experiment [2]; with J774 [3]) were 0.0026 µM and 4.3 µM, respectively. Further, the “Ratio IC50” value in the experiment on J774 [4] is recorded as 1653.
In the case of `CCOC(=O)[C@@H]1[C@@H](C(=O)OCC)N1C(=O)[C@@H]1CN1C(=O)[C@H](CC(C)C)NC(=O)OC(C)(C)C`, the values for the inhibition constant (Ki) on Rhodesain [5] and at Rhodesain [6] were 0.3 µM and 0.36 µM, respectively. The 50% inhibitory concentration (IC50) in experiment [2] was found to be 25.7 µM; in the experiment with J774 [3] it was 50 µM. Moreover, the “Ratio IC50” value in the experiment on J774 [4] was determined as 1.9.
As to `CC(C)C[C@@H](NC(=O)OC(C)(C)C)C(=O)N1CCC[C@@H](C(=O)N2[C@H](C(=O)O)[C@H]2C(=O)O)C1`, the inhibition entry in experiment [7] was “inactive”.
`Cc1ccc(C(=O)Nc2ccc(S(=O)(=O)[O-])c3cc(S(=O)(=O)[O-])cc(S(=O)(=O)[O-])c23)cc1NC(=O)c1cccc(NC(=O)Nc2cccc(C(=O)Nc3cc(C(=O)Nc4ccc(S(=O)(=O)[O-])c5cc(S(=O)(=O)[O-])cc(S(=O)(=O)[O-])c45)ccc3C)c2)c1.[Na+].[Na+].[Na+].[Na+].[Na+].[Na+]` [SURAMIN HEXASODIUM] registered an inhibition in experiment [1] of 31.5%. In experiment [2], this compound showed an IC50 of 0.31 µM and an MIC of 1 µM. Besides, the IC50 in the experiment with J774 [3] was over 1000 µM. Further, the “Ratio IC50” value with J774 [4] is listed as over 3225.
For `CC(C)(C)OC(=O)NCC(=O)N1CCC[C@H](C(=O)N2[C@H](C(=O)O)[C@H]2C(=O)O)C1`, the inhibition result in experiment [7] is “inactive”.
With `C[C@H](NC(=O)[C@@H](Cc1ccccc1)NC(=O)OC(C)(C)C)C(=O)N1[C@H](C(=O)OCc2ccccc2)[C@H]1C(=O)OCc1ccccc1`, in experiment [7], the inhibition entry was “inactive”. Also, the 50% inhibitory concentration (IC50) amounted to 34.3 µM in experiment [2] and 43.7 µM with J774 [8]. Besides, the “Ratio IC50” value in the experiment on J774 [4] is listed as 1.3.
With `CC(C)C[C@H](NC(=O)OC(C)(C)C)C(=O)N1CCC[C@@H](C(=O)N2[C@H](C(=O)O)[C@H]2C(=O)O)C1`, the inhibition result in experiment [7] was “inactive”.
Consider `N=C(N)c1ccc(OCCCCCOc2ccc(C(=N)N)cc2)cc1.O=S(=O)(O)CCO.O=S(=O)(O)CCO` [PENTAMIDINE ISETHIONATE], for which the inhibition in experiment [1] is 27.9%. Besides, the half-maximal inhibitory concentration (IC50) in experiment [2] amounted to 0.0029 µM; in the experiment with J774 [3], 41.6 µM. Further, the “Ratio IC50” value with J774 [4] was 14345.
On to `CC(C)(C)OC(=O)NCC(=O)N1CCC[C@@H]1C(=O)N1[C@H](C(=O)O)[C@H]1C(=O)O`, for which the inhibition entry in experiment [7] was “inactive”. Also, the half-maximal inhibitory concentration (IC50) (in experiment [2]; in the experiment with J774 [3]) was over 100 µM throughout.
On to `CC(C)C[C@H](NC(=O)OC(C)(C)C)C(=O)N1CCC[C@H]1C(=O)N1[C@H](C(=O)O)[C@H]1C(=O)O`, for which the inhibition result in experiment [7] was “inactive”.

As a reminder, the inhibition is the percentage by which the read-out fell short of the control. In general, MIC refers to the least concentration at which growth counts as inhibited. Read a high MIC as a less susceptible organism. For orientation: IC50 means the concentration that gives 50% inhibition. One may read the Ki as a dissociation constant, usually derived from enzyme kinetics or from competition with a known ligand.
